# Reference: patent publication US10681909B2, “Herbicidal triazoles” (FMC Corporation, priority 2014, dated 2020)
# Legend:
# rice [1] = assay: Test B flooded paddy test; format: in vivo, Oryza sativa; settings: 250 g ai/ha, applied to paddy water at 2-leaf stage, visual rating after 13 to 15 d, scale 0 (no effect) to 100 (complete control)
# Summary of the method: (§1)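 Pots were flooded to 3 cm above the soil at treatment, and compounds were applied directly into the paddy water. That depth was held throughout. After 13 to 15 d in a greenhouse, plants were rated visually against untreated controls.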
# barnyardgrass [2] = assay: Test A preemergence; format: in vivo, Echinochloa crus-galli; settings: 0 to 100 scale (0 no effect, 100 complete control)
# Summary of the method: (§2)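 For preemergence, seeds were sown in a loam soil-sand blend and given a directed soil spray of test chemical in a non-phytotoxic solvent mixture with surfactant. For postemergence, plants in pots of the same blend were sprayed with the same formulation at the one- to two-leaf stage, 2 to 10 cm tall.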
# foxtail, giant [3] = assay: Test A postemergence; format: in vivo, Setaria faberii; settings: 0 to 100 scale (0 no effect, 100 complete control), approx. 10 d
# Summary of the method: as §2
# crabgrass, large [4] = assay: Test A postemergence; format: in vivo, Digitaria sanguinalis; settings: 0 to 100 scale (0 no effect, 100 complete control), approx. 10 d
# Summary of the method: as §2
# crabgrass, large [5] = assay: Test A preemergence; format: in vivo, Digitaria sanguinalis; settings: 0 to 100 scale (0 no effect, 100 complete control)
# Summary of the method: as §2
# corn [6] = assay: Test A postemergence; format: in vivo, Zea mays; settings: 0 to 100 scale (0 no effect, 100 complete control), approx. 10 d
# Summary of the method: as §2
# sedge, umbrella [7] = assay: Test B flooded paddy test; format: in vivo, Cyperus difformis; settings: 250 g ai/ha, applied to paddy water at 2-leaf stage, visual rating after 13 to 15 d, scale 0 (no effect) to 100 (complete control)
# Summary of the method: as §1
# ducksalad [8] = assay: Test B flooded paddy test; format: in vivo, Heteranthera limosa; settings: 250 g ai/ha, applied to paddy water at 2-leaf stage, visual rating after 13 to 15 d, scale 0 (no effect) to 100 (complete control)
# Summary of the method: as §1
# barnyardgrass [9] = assay: Test A postemergence; format: in vivo, Echinochloa crus-galli; settings: 0 to 100 scale (0 no effect, 100 complete control), approx. 10 d
# Summary of the method: as §2
# barnyardgrass [10] = assay: Test C flooded paddy test; format: in vivo, Echinochloa crus-galli; settings: Flood, applied to paddy water, rating after 13 to 15 d
# Source text: (§3) At time of treatment, test pots were flooded to 3 cm above the soil surface, treated by application of test compounds directly to the paddy water, and then maintained at that water depth for the duration of the test. Treated plants and controls were maintained in a greenhouse for 13 to 15 d, after which time all species were compared to controls and visually evaluated. […] A dash (-) response means no test result.
# velvetleaf [11] = assay: Test A preemergence; format: in vivo, Abutilon theophrasti; settings: 0 to 100 scale (0 no effect, 100 complete control)
# Summary of the method: as §2
# foxtail, giant [12] = assay: Test A preemergence; format: in vivo, Setaria faberii; settings: 0 to 100 scale (0 no effect, 100 complete control)
# Summary of the method: as §2
# morningglory [13] = assay: Test A preemergence; format: in vivo, Ipomoea spp.; settings: 0 to 100 scale (0 no effect, 100 complete control)
# Summary of the method: as §2
# wheat [14] = assay: Test A postemergence; format: in vivo, Triticum aestivum; settings: 0 to 100 scale (0 no effect, 100 complete control), approx. 10 d
# Summary of the method: as §2
# rice [15] = assay: Test C flooded paddy test; format: in vivo, Oryza sativa; settings: Flood, applied to paddy water, rating after 13 to 15 d
# Source text: as §3
# pigweed [16] = assay: Test A postemergence; format: in vivo, Amaranthus retroflexus; settings: 0 to 100 scale (0 no effect, 100 complete control), approx. 10 d
# Summary of the method: as §2
# barnyardgrass [17] = assay: Test B flooded paddy test; format: in vivo, Echinochloa crus-galli; settings: 250 g ai/ha, applied to paddy water at 2-leaf stage, visual rating after 13 to 15 d, scale 0 (no effect) to 100 (complete control)
# Summary of the method: as §1
# corn [18] = assay: Test A preemergence; format: in vivo, Zea mays; settings: 0 to 100 scale (0 no effect, 100 complete control)
# Summary of the method: as §2
# morningglory [19] = assay: Test A postemergence; format: in vivo, Ipomoea spp.; settings: 0 to 100 scale (0 no effect, 100 complete control), approx. 10 d
# Summary of the method: as §2
# sedge, umbrella [20] = assay: Test C flooded paddy test; format: in vivo, Cyperus difformis; settings: Flood, applied to paddy water, rating after 13 to 15 d
# Source text: as §3
# velvetleaf [21] = assay: Test A postemergence; format: in vivo, Abutilon theophrasti; settings: 0 to 100 scale (0 no effect, 100 complete control), approx. 10 d
# Summary of the method: as §2
# wheat [22] = assay: Test A preemergence; format: in vivo, Triticum aestivum; settings: 0 to 100 scale (0 no effect, 100 complete control)
# Summary of the method: as §2
# ducksalad [23] = assay: Test C flooded paddy test; format: in vivo, Heteranthera limosa; settings: Flood, applied to paddy water, rating after 13 to 15 d
# Source text: as §3
# pigweed [24] = assay: Test A preemergence; format: in vivo, Amaranthus retroflexus; settings: 0 to 100 scale (0 no effect, 100 complete control)
# Summary of the method: as §2
structure (smiles),measurement,setting,value
CCCc1nc(-c2ccc(F)c(F)c2)nn1Cc1ccnc(C(F)(F)F)c1 [Compound 23],"Plant response rating, Rice, Flood",rice [1],25
same,"Plant response rating, Barnyardgrass",barnyardgrass [2]; 125 g ai/ha,50
same,"Plant response rating, Barnyardgrass","barnyardgrass [2]; 500 g ai/ha, approx. 10 d",100
same,"Plant response rating, Foxtail, Giant","foxtail, giant [3]; 125 g ai/ha",70
same,"Plant response rating, Foxtail, Giant","foxtail, giant [3]; 500 g ai/ha",90
same,"Plant response rating, Crabgrass, Large","crabgrass, large [4]; 125 g ai/ha",70
same,"Plant response rating, Crabgrass, Large","crabgrass, large [4]; 500 g ai/ha",90
same,"Plant response rating, Crabgrass, Large","crabgrass, large [5]; 125 g ai/ha",100
same,"Plant response rating, Crabgrass, Large","crabgrass, large [5]; 500 g ai/ha, approx. 10 d",100
same,"Plant response rating, Corn",corn [6]; 125 g ai/ha,30
same,"Plant response rating, Corn",corn [6]; 500 g ai/ha,60
same,"Plant response rating, Sedge, Umbrella, Flood","sedge, umbrella [7]",95
same,"Plant response rating, Ducksalad, Flood",ducksalad [8],90
same,"Plant response rating, Barnyardgrass",barnyardgrass [9]; 125 g ai/ha,50
same,"Plant response rating, Barnyardgrass",barnyardgrass [9]; 500 g ai/ha,70
same,Barnyardgrass plant response rating (0 to 100),barnyardgrass [10]; 31 g ai/ha,0
same,Barnyardgrass plant response rating (0 to 100),barnyardgrass [10]; 62 g ai/ha,10
same,Barnyardgrass plant response rating (0 to 100),barnyardgrass [10]; 125 g ai/ha,15
same,Barnyardgrass plant response rating (0 to 100),barnyardgrass [10]; 250 g ai/ha,20
same,"Plant response rating, Velvetleaf",velvetleaf [11]; 125 g ai/ha,30
same,"Plant response rating, Velvetleaf","velvetleaf [11]; 500 g ai/ha, approx. 10 d",80
same,"Plant response rating, Foxtail, Giant","foxtail, giant [12]; 125 g ai/ha",100
same,"Plant response rating, Foxtail, Giant","foxtail, giant [12]; 500 g ai/ha, approx. 10 d",100
same,"Plant response rating, Morningglory",morningglory [13]; 125 g ai/ha,50
same,"Plant response rating, Morningglory","morningglory [13]; 500 g ai/ha, approx. 10 d",80
same,"Plant response rating, Wheat",wheat [14]; 125 g ai/ha,30
same,"Plant response rating, Wheat",wheat [14]; 500 g ai/ha,50
same,Rice plant response rating (0 to 100),rice [15]; 31 g ai/ha,0
same,Rice plant response rating (0 to 100),rice [15]; 62 g ai/ha,0
same,Rice plant response rating (0 to 100),rice [15]; 125 g ai/ha,0
same,Rice plant response rating (0 to 100),rice [15]; 250 g ai/ha,0
same,"Plant response rating, Pigweed",pigweed [16]; 125 g ai/ha,100
same,"Plant response rating, Pigweed",pigweed [16]; 500 g ai/ha,100
same,"Plant response rating, Barnyardgrass, Flood",barnyardgrass [17],90
same,"Plant response rating, Corn",corn [18]; 125 g ai/ha,20
same,"Plant response rating, Corn","corn [18]; 500 g ai/ha, approx. 10 d",30
same,"Plant response rating, Morningglory",morningglory [19]; 125 g ai/ha,50
same,"Plant response rating, Morningglory",morningglory [19]; 500 g ai/ha,90
same,"Sedge, Umbrella plant response rating (0 to 100)","sedge, umbrella [20]; 31 g ai/ha",80
same,"Sedge, Umbrella plant response rating (0 to 100)","sedge, umbrella [20]; 62 g ai/ha",85
same,"Sedge, Umbrella plant response rating (0 to 100)","sedge, umbrella [20]; 125 g ai/ha",90
same,"Sedge, Umbrella plant response rating (0 to 100)","sedge, umbrella [20]; 250 g ai/ha",95
same,"Plant response rating, Velvetleaf",velvetleaf [21]; 125 g ai/ha,70
same,"Plant response rating, Velvetleaf",velvetleaf [21]; 500 g ai/ha,100
same,"Plant response rating, Wheat",wheat [22]; 125 g ai/ha,20
same,"Plant response rating, Wheat","wheat [22]; 500 g ai/ha, approx. 10 d",40
same,Ducksalad plant response rating (0 to 100),ducksalad [23]; 31 g ai/ha,30
same,Ducksalad plant response rating (0 to 100),ducksalad [23]; 62 g ai/ha,45
same,Ducksalad plant response rating (0 to 100),ducksalad [23]; 125 g ai/ha,75
same,Ducksalad plant response rating (0 to 100),ducksalad [23]; 250 g ai/ha,80
same,"Plant response rating, Pigweed",pigweed [24]; 125 g ai/ha,100
same,"Plant response rating, Pigweed","pigweed [24]; 500 g ai/ha, approx. 10 d",100
